Measurements taken from patent US4401604A, “Process for preparing thiosulfenamide derivatives of N-phosphonomethylglycine triesters” (Monsanto Company, priority 1981, dated 1983).

Columns and labels:
Type in all cases: in vivo
Barnyardgrass [1] = test: Post-emergence herbicidal activity, greenhouse; details: 4 WAT
Source text: (§1) A good grade of top soil is placed in aluminum pans having holes in the bottom and compacted to a depth of 0.95 to 1.27 cm. from the top of the pan. A predetermined number of seeds of each of several dicotyledonous and monocotyledonous annual plant species and/or vegetative propagules for the perennial plant species are placed on the soil and pressed into the soil surface. The seeds and/or vegetative propagules are covered with soil and leveled. The pans are then placed on a sand bench in the greenhouse and watered from below as needed. After the plants reach the desired age (two to three weeks), each pan except for the control pans is removed individually to a spraying chamber and sprayed by means of an atomizer operating at a positive air pressure of approximately 1.46 kg/cm^2 absolute. The atomizer contains 6 ml. of a solution or suspension of the chemical. In that 6 ml., is an amount of a cyclohexanone emulsifying agent mixture to give a spray solution or suspension which contains about 0.4% by weight of the emulsifier. The spray solution or suspension contains a sufficient amount of the candidate chemical in order to give application rates corresponding to those set forth in the tables. The spray solution is prepared by taking an aliquot of a 1.0% by weight stock solution or suspension of the candidate chemical in an organic solvent such as acetone or tetrahydrofuran or in water. The emulsifying agent employed is a mixture comprising 35 weight percent butylamine dodecylbenzene sulfonate and 65 weight percent of a tall oil ethylene oxide condensate having about 11 moles of ethylene oxide per mole of tall oil. The pans are returned to the greenhouse and watered as before and the injury to the plants as compared to the control is observed at approximately two and four weeks as indicated in the tables under WAT and the results recorded. In some instances, the two-week observations are omitted.
(§2) The post-emergence herbicidal activity index used in Table I is as follows:
(§3) The plant species utilized in these tests are identified by letter in accordance with the following legend: […]

Canada Thistle = test: Post-emergence herbicidal activity, greenhouse; details: Table I, 4 WAT
Source text: as §1, §2, §3

Cocklebur [2] = test: Post-emergence herbicidal activity, greenhouse; details: 4 WAT
Source text: as §1, §2, §3

Crabgrass = test: Post-emergence herbicidal activity, greenhouse; details: Table II, 4 WAT
Source text: as §1, §2, §3

Downy Brome [3] = test: Post-emergence herbicidal activity, greenhouse; details: 4 WAT
Source text: as §1, §2, §3

Hemp Sesbania = test: Post-emergence herbicidal activity, greenhouse; details: Table II, 4 WAT
Source text: as §1, §2, §3

Johnsongrass [4] = test: Post-emergence herbicidal activity, greenhouse; details: Table I, 4 WAT
Source text: as §1, §2, §3

Lambsquarters [5] = test: Post-emergence herbicidal activity, greenhouse; details: 4 WAT
Source text: as §1, §2, §3

Morningglory [6] = test: Post-emergence herbicidal activity, greenhouse; details: 4 WAT
Source text: as §1, §2, §3

Panicum Spp = test: Post-emergence herbicidal activity, greenhouse; details: Table II, 4 WAT
Source text: as §1, §2, §3

Quackgrass [7] = test: Post-emergence herbicidal activity, greenhouse; details: Table I, 4 WAT
Source text: as §1, §2, §3

Rice = test: Post-emergence herbicidal activity, greenhouse; details: Table II, 4 WAT
Source text: as §1, §2, §3

Smartweed = test: Post-emergence herbicidal activity, greenhouse; details: 4 WAT
Source text: as §1, §2, §3

Sorghum = test: Post-emergence herbicidal activity, greenhouse; details: Table II, 4 WAT
Source text: as §1, §2, §3

Soybean = test: Post-emergence herbicidal activity, greenhouse; details: Table II, 4 WAT
Source text: as §1, §2, §3

Sugar Beet = test: Post-emergence herbicidal activity, greenhouse; details: Table II, 4 WAT
Source text: as §1, §2, §3

Velvetleaf [8] = test: Post-emergence herbicidal activity, greenhouse; details: 4 WAT
Source text: as §1, §2, §3

Wheat = test: Post-emergence herbicidal activity, greenhouse; details: Table II, 4 WAT
Source text: as §1, §2, §3

Wild Buckwheat = test: Post-emergence herbicidal activity, greenhouse; details: Table II, 4 WAT
Source text: as §1, §2, §3

Yellow Nutsedge [9] = test: Post-emergence herbicidal activity, greenhouse; details: Table I, 4 WAT
Source text: as §1, §2, §3

Barnyardgrass [10] = test: Pre-emergent herbicidal activity; details: Table III; 11.2 kg/h; 2 WAT
Source text: (§4) A good grade of top soil is placed in aluminum pans and compacted to a depth of 0.95 to 1.27 cm. from the top of each pan. A predetermined number of seeds or vegetative propagules of each of several plant species are placed on top of the soil in each pan and then pressed down. Herbicidal compositions prepared as in the previous example are applied by admixture with or incorporation in the top layer of soil.
(§5) In this method, the soil required to cover the seeds and propagules is weighed and admixed with a herbicidal composition containing a known amount of the active ingredient (compound of this invention). The pans are then filled with the admixture and leveled. Watering is carried out by permitting the soil in the pans to absorb moisture through apertures in the pan bottoms. The seed and propagule containing pans are placed on a wet sand bench and maintained for approximately two weeks under ordinary conditions of sunlight and watering. At the end of this period, the number of emerged plants of each species is noted and compared to an untreated control.
(§6) The pre-emergent herbicidal activity index used below is based upon average percent control of each species as follows:
(§7) Plant species in the table are identified by the same code letters used in the previous example.

Cocklebur [11] = test: Pre-emergent herbicidal activity; details: Table III; 11.2 kg/h; 2 WAT
Source text: as §4, §5, §6, §7

Downy Brome [12] = test: Pre-emergent herbicidal activity; details: Table III; 11.2 kg/h; 2 WAT
Source text: as §4, §5, §6, §7

Johnsongrass [13] = test: Pre-emergent herbicidal activity; details: Table III; 11.2 kg/h; 2 WAT
Source text: as §4, §5, §6, §7

Lambsquarters [14] = test: Pre-emergent herbicidal activity; details: Table III; 11.2 kg/h; 2 WAT
Source text: as §4, §5, §6, §7

Morningglory [15] = test: Pre-emergent herbicidal activity; details: Table III; 11.2 kg/h; 2 WAT
Source text: as §4, §5, §6, §7

Quackgrass [16] = test: Pre-emergent herbicidal activity; details: Table III; 11.2 kg/h; 2 WAT
Source text: as §4, §5, §6, §7

Velvetleaf [17] = test: Pre-emergent herbicidal activity; details: Table III; 11.2 kg/h; 2 WAT
Source text: as §4, §5, §6, §7

Yellow Nutsedge [18] = test: Pre-emergent herbicidal activity; details: Table III; 11.2 kg/h; 2 WAT
Source text: as §4, §5, §6, §7

CCOC(=O)CN(CP(=O)(Oc1ccc(OC)cc1)Oc1ccc(OC)cc1)SSC [VI, Glycine, N-[[bis(4-methoxyphenoxy)phosphinyl]methyl]-N-(methyldithio)-, ethyl ester]
post-emergence herbicidal activity index (Barnyardgrass [1]; Table I, 5.6 kg/h): 4 (100% control)
post-emergence herbicidal activity index (Barnyardgrass [1]; Table I, 11.2 kg/h): 3 (75-99% control)
post-emergence herbicidal activity index (Barnyardgrass [1]; Table II, 0.28 kg/h): 0 (0- 24% control)
post-emergence herbicidal activity index (Barnyardgrass [1]; Table II, 1.12 kg/h): 3 (75-99% control)
post-emergence herbicidal activity index (Barnyardgrass [1]; Table II, 5.6 kg/h): 4 (100% control)
post-emergence herbicidal activity index (Canada Thistle; 5.6 kg/h): 1 (25-49% control)
post-emergence herbicidal activity index (Canada Thistle; 11.2 kg/h): 2 (50-74% control)
post-emergence herbicidal activity index (Cocklebur [2]; Table I, 5.6 kg/h): 2 (50-74% control)
post-emergence herbicidal activity index (Cocklebur [2]; Table I, 11.2 kg/h): 3 (75-99% control)
post-emergence herbicidal activity index (Cocklebur [2]; Table II, 0.28 kg/h): 0 (0- 24% control)
post-emergence herbicidal activity index (Cocklebur [2]; Table II, 1.12 kg/h): 3 (75-99% control)
post-emergence herbicidal activity index (Cocklebur [2]; Table II, 5.6 kg/h): 4 (100% control)
post-emergence herbicidal activity index (Crabgrass; 0.28 kg/h): 0 (0- 24% control)
post-emergence herbicidal activity index (Crabgrass; 1.12 kg/h): 4 (100% control)
post-emergence herbicidal activity index (Crabgrass; 5.6 kg/h): 4 (100% control)
post-emergence herbicidal activity index (Downy Brome [3]; Table I, 5.6 kg/h): 2 (50-74% control)
post-emergence herbicidal activity index (Downy Brome [3]; Table I, 11.2 kg/h): 3 (75-99% control)
post-emergence herbicidal activity index (Downy Brome [3]; Table II, 0.28 kg/h): 0 (0- 24% control)
post-emergence herbicidal activity index (Downy Brome [3]; Table II, 1.12 kg/h): 2 (50-74% control)
post-emergence herbicidal activity index (Downy Brome [3]; Table II, 5.6 kg/h): 4 (100% control)
post-emergence herbicidal activity index (Hemp Sesbania; 0.28 kg/h): 0 (0- 24% control)
post-emergence herbicidal activity index (Hemp Sesbania; 1.12 kg/h): 0 (0- 24% control)
post-emergence herbicidal activity index (Hemp Sesbania; 5.6 kg/h): 3 (75-99% control)
post-emergence herbicidal activity index (Johnsongrass [4]; 5.6 kg/h): 2 (50-74% control)
post-emergence herbicidal activity index (Johnsongrass [4]; 11.2 kg/h): 3 (75-99% control)
post-emergence herbicidal activity index (Lambsquarters [5]; Table I, 5.6 kg/h): 3 (75-99% control)
post-emergence herbicidal activity index (Lambsquarters [5]; Table I, 11.2 kg/h): 3 (75-99% control)
post-emergence herbicidal activity index (Lambsquarters [5]; Table II, 0.28 kg/h): 0 (0- 24% control)
post-emergence herbicidal activity index (Lambsquarters [5]; Table II, 1.12 kg/h): 2 (50-74% control)
post-emergence herbicidal activity index (Lambsquarters [5]; Table II, 5.6 kg/h): 4 (100% control)
post-emergence herbicidal activity index (Morningglory [6]; Table I, 5.6 kg/h): 2 (50-74% control)
post-emergence herbicidal activity index (Morningglory [6]; Table I, 11.2 kg/h): 3 (75-99% control)
post-emergence herbicidal activity index (Morningglory [6]; Table II, 0.28 kg/h): 0 (0- 24% control)
post-emergence herbicidal activity index (Morningglory [6]; Table II, 1.12 kg/h): 2 (50-74% control)
post-emergence herbicidal activity index (Morningglory [6]; Table II, 5.6 kg/h): 3 (75-99% control)
post-emergence herbicidal activity index (Panicum Spp; 0.28 kg/h): 0 (0- 24% control)
post-emergence herbicidal activity index (Panicum Spp; 1.12 kg/h): 2 (50-74% control)
post-emergence herbicidal activity index (Panicum Spp; 5.6 kg/h): 4 (100% control)
post-emergence herbicidal activity index (Quackgrass [7]; 5.6 kg/h): 0 (0- 24% control)
post-emergence herbicidal activity index (Quackgrass [7]; 11.2 kg/h): 1 (25-49% control)
post-emergence herbicidal activity index (Rice; 0.28 kg/h): 0 (0- 24% control)
post-emergence herbicidal activity index (Rice; 1.12 kg/h): 0 (0- 24% control)
post-emergence herbicidal activity index (Rice; 5.6 kg/h): 3 (75-99% control)
post-emergence herbicidal activity index (Smartweed; Table I, 5.6 kg/h): 2 (50-74% control)
post-emergence herbicidal activity index (Smartweed; Table I, 11.2 kg/h): 2 (50-74% control)
post-emergence herbicidal activity index (Smartweed; Table II, 0.28 kg/h): 0 (0- 24% control)
post-emergence herbicidal activity index (Smartweed; Table II, 5.6 kg/h): 4 (100% control)
post-emergence herbicidal activity index (Sorghum; 0.28 kg/h): 0 (0- 24% control)
post-emergence herbicidal activity index (Sorghum; 1.12 kg/h): 2 (50-74% control)
post-emergence herbicidal activity index (Sorghum; 5.6 kg/h): 3 (75-99% control)
post-emergence herbicidal activity index (Soybean; 0.28 kg/h): 0 (0- 24% control)
post-emergence herbicidal activity index (Soybean; 1.12 kg/h): 1 (25-49% control)
post-emergence herbicidal activity index (Soybean; 5.6 kg/h): 3 (75-99% control)
post-emergence herbicidal activity index (Sugar Beet; 0.28 kg/h): 0 (0- 24% control)
post-emergence herbicidal activity index (Sugar Beet; 1.12 kg/h): 1 (25-49% control)
post-emergence herbicidal activity index (Sugar Beet; 5.6 kg/h): 4 (100% control)
post-emergence herbicidal activity index (Velvetleaf [8]; Table I, 5.6 kg/h): 1 (25-49% control)
post-emergence herbicidal activity index (Velvetleaf [8]; Table I, 11.2 kg/h): 2 (50-74% control)
post-emergence herbicidal activity index (Velvetleaf [8]; Table II, 0.28 kg/h): 0 (0- 24% control)
post-emergence herbicidal activity index (Velvetleaf [8]; Table II, 1.12 kg/h): 1 (25-49% control)
post-emergence herbicidal activity index (Velvetleaf [8]; Table II, 5.6 kg/h): 4 (100% control)
post-emergence herbicidal activity index (Wheat; 0.28 kg/h): 0 (0- 24% control)
post-emergence herbicidal activity index (Wheat; 1.12 kg/h): 1 (25-49% control)
post-emergence herbicidal activity index (Wheat; 5.6 kg/h): 3 (75-99% control)
post-emergence herbicidal activity index (Wild Buckwheat; 0.28 kg/h): 0 (0- 24% control)
post-emergence herbicidal activity index (Wild Buckwheat; 1.12 kg/h): 1 (25-49% control)
post-emergence herbicidal activity index (Wild Buckwheat; 5.6 kg/h): 4 (100% control)
post-emergence herbicidal activity index (Yellow Nutsedge [9]; 5.6 kg/h): 1 (25-49% control)
post-emergence herbicidal activity index (Yellow Nutsedge [9]; 11.2 kg/h): 1 (25-49% control)
pre-emergent herbicidal activity index (Barnyardgrass [10]): 0 (0-24% control)
pre-emergent herbicidal activity index (Cocklebur [11]): 0 (0-24% control)
pre-emergent herbicidal activity index (Downy Brome [12]): 0 (0-24% control)
pre-emergent herbicidal activity index (Johnsongrass [13]): 0 (0-24% control)
pre-emergent herbicidal activity index (Lambsquarters [14]): 0 (0-24% control)
pre-emergent herbicidal activity index (Morningglory [15]): 0 (0-24% control)
pre-emergent herbicidal activity index (Quackgrass [16]): 0 (0-24% control)
pre-emergent herbicidal activity index (Velvetleaf [17]): 0 (0-24% control)
pre-emergent herbicidal activity index (Yellow Nutsedge [18]): 0 (0-24% control)
